Molecules are shown by their SMILES. Entries after “also recorded” stand apart in the source; their conditions may differ. Where two headings read alike, the source gives them in different places.

One data set is described as follows: in vitro. As to conditions: human, plasma, pH 7.4.
The target in data set [1] is T1, purified human serum BuChE (Homo sapiens, UniProt P06276).
T1 construct: Purified human serum butyrylcholinesterase (EC 3.1.1.8); purchased Sigma-Aldrich; host or cells: human serum
T1 sequence (P06276 29-602): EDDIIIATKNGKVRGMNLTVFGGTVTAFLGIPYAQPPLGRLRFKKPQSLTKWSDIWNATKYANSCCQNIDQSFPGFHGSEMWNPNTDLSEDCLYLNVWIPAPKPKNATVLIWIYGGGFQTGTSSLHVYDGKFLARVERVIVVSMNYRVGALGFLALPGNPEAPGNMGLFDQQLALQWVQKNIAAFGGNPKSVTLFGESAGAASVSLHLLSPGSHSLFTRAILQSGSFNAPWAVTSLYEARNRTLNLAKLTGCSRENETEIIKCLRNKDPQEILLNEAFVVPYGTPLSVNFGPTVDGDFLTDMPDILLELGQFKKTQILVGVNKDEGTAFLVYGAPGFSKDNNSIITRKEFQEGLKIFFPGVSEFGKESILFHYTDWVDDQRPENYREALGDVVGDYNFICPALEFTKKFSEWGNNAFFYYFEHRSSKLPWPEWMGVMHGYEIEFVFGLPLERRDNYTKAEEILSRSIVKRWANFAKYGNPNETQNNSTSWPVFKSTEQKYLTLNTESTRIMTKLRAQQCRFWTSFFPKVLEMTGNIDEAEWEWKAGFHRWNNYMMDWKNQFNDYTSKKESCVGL
In words: Hydrolysis by purified human serum butyrylcholinesterase. It is filed as in vitro ADME. The following applies: purified butyrylcholinesterase. Here is the method: (§1) Pooled plasma/serum solutions (4 ml) were prepared to the correct strength by dilution of plasma with phosphate buffer pH 7.4 (e.g. for a 10% solution 0.4 ml of plasma/serum was added to 3.6 ml of phosphate buffer pH 7.4). Following equilibration of the plasma/serum sample at 37±0.5° C. 100 μl of a stock solution of test compound in acetonitrile (1×10^−4 M) was added and 250 μl aliquots were removed at specified time intervals. Samples were transferred to 1.5 ml Eppendorf tubes containing 500 μl of a 2% w/v solution of nSO4.7H2O (water:acetonitrile, 1:1). Tubes were vortexed for 2 minutes, then centrifuged at 10,000 rpm for 3 minutes at room temperature. Supernatant was aspirated off and analysed by HPLC. The concentration of test compound and metabolites were determined with reference to calibration curves run on that day in the same concentration range and under the same experimental conditions. In order to mimic conditions during the first passage of the drugs after intestinal absorption selected compounds were incubated in phosphate buffer at 37° C. in the presence of microsomes from human liver (HLM) and intestinal epithelium (HIM). The metabolic fate of the esters under these conditions was also determined by RPHPLC by measuring the concentration of drug and metabolites in the medium as a function of time. The identity of participating enzymes was confirmed by using purified enzyme in the case of plasma (BuChE) and by repeating the hydrolysis experiments in the presence of esterase specific inhibitors—isoOMPA for BuChE and BNPP for carboxylesterase. The BuChE activity of plasma and microsomal samples was determined using the Ellman assay (Ellman et al., 1964).

In data set [2] the test system is human platelet aggregation to arachidonic acid. The data set is described as follows: Human platelet aggregation to arachidonic acid in platelet rich plasma. The data set is classed as cell-based. The method, then:
(§2) Blood was collected from healthy volunteers who had not taken any drugs known to affect platelet function for at least 14 days prior to the study. Platelet rich plasma (PRP) and washed platelet suspensions (2.5×10^8 platelets/ml) were prepared from blood as previously described.
(§3) Platelet aggregation was measured by light aggregometry as previously described. Briefly, PRP and washed platelet samples (2.5×10^8/ml) were placed in a whole blood ionized calcium lumi-aggregometer (Chronolog Corp., Havertown, Pa., U.S.A), and (BIO/DATA CORPORATION) and incubated for 10 min at 37° C., with stirring at 900 r.p.m., prior to the addition of aggregating agents. Aggregation was initiated by the addition of agonists, and monitored by Aggro-Link software for at least 6 min. For experiments using inhibitors, aggregation was initiated after 10 min preincubation with these compounds

A short description of data set [3]: Hydrolysis in the presence of human liver microsomes (HLM), with or without esterase inhibitors. The data set is classed as in vitro ADME.
Description: (§4) Pooled plasma/serum solutions (4 ml) were prepared to the correct strength by dilution of plasma with phosphate buffer pH 7.4 (e.g. for a 10% solution 0.4 ml of plasma/serum was added to 3.6 ml of phosphate buffer pH 7.4). Following equilibration of the plasma/serum sample at 37±0.5° C. 100 μl of a stock solution of test compound in acetonitrile (1×10^−4 M) was added and 250 μl aliquots were removed at specified time intervals. Samples were transferred to 1.5 ml Eppendorf tubes containing 500 μl of a 2% w/v solution of nSO4.7H2O (water:acetonitrile, 1:1). Tubes were vortexed for 2 minutes, then centrifuged at 10,000 rpm for 3 minutes at room temperature. Supernatant was aspirated off and analysed by HPLC. The concentration of test compound and metabolites were determined with reference to calibration curves run on that day in the same concentration range and under the same experimental conditions. […] The metabolic fate of the esters under these conditions was also determined by RPHPLC by measuring the concentration of drug and metabolites in the medium as a function of time. […] The BuChE activity of plasma and microsomal samples was determined using the Ellman assay (Ellman et al., 1964). […]
The conditions of data set [4]: female, human, 0.1 mM, pH 7.4.
The test system of data set [5] is esterases found in CACO-2 cells. In words: Stability towards esterases found in CACO-2 cells. The data set is classed as in vitro ADME.
A further data set concerns MDA synthesis. In words: MDA synthesis by washed platelets. It is filed as cell-based.
The format of data set [6] is in vitro ADME. The following applies: 0.1 mM, pH 7.4. The method, then:
as §1
Qualitative hydrolysis screening of Is-2-aspirinate-5-salicylate 2 (0.1 mM) was studied using guinea pig, hamster, rabbit and monkey plasma. The purpose of this test was to determine a suitable species for biological testing and preclinical development. The results were also expected to confirm the role of the human enzymes already identified because these are variously distributed in laboratory animals.

Data set [7] is described as follows: Hydrolysis in the presence of human intestinal microsomes (HIM), with or without esterase inhibitors. It is filed as in vitro ADME. As to conditions: 0.1 mM, pH 7.4.
Description: as §4
Another data set has as its system GPIIb/IIIa. In words: Flow cytometry of activated GPIIb/IIIa (PAC-1) on platelets. It is filed as cell-based, human. As to conditions: concentrations at which aspirin has no effect. Here is the method:
In order to analyze receptor expression on the surface of individual platelets and to minimize platelet activation caused by sample preparation procedures, no stirring or vortexing steps were used. The abundance of activated GPIIb/IIIa and P-selectin on the surface of platelets in the presence and absence of inhibitors was measured by flow cytometry. Platelet samples were first activated with agonists either collagen or ADP. When platelet aggregation reached 50% maximal light transmission the reaction was terminated by 10-fold dilution with physiologic saline. Resting platelets were used as control. In most of the experiments, platelets were preincubated with inhibitors for 10 min prior to the addition of agonists. Platelet samples were then incubated in the dark without stirring for 5 min at room temperature in the presence of saturating concentrations (10 μg/ml) of P-selectin (CD62P-APC). The activated GPIIb/IIIa platelet receptors were measured using PAC-1 monoclonal antibody at the same concentration as above. PAC-1 specifically recognizes an epitope on the high-affinity GPIIb/IIIa complex of activated platelets at or near the […]. Following incubation, samples were diluted in FACS Flow fluid and analyzed within 5 min using a BD FACSArray (BD Biosciences, Oxford, UK). Flow cytometry was performed on single stained platelet samples as described before^3. The instrument was set up to measure the size (forward scatter), granularity (side scatter) and cell fluorescence. A two-dimensional analysis gate of forward and side scatter was drawn in order to include single platelets and exclude platelet aggregates and microparticles. Antibody binding was measured by analyzing individual platelets for fluorescence. The mean fluorescence intensity was determined after correction for cell autofluorescence. For each sample, the fluorescence was analyzed using a logarithmic scale. Fluorescence histograms were obtained for 10,000 individual events. Data were analyzed using Cytometer RXP software and expressed as a percentage of control fluorescence in arbitrary units.

Data set [8] concerns rabbit liver carboxylesterase. It is filed as in vitro ADME. The following applies: 0.1 mM.
The test system of data set [9] is collagen-induced human platelet aggregation. In words: Collagen-induced human platelet aggregation in vitro. It is filed as cell-based. As to conditions: listed as ISAS. Here is the method: as §2, §3
Collagen at different concentrations (3-5 ug/ml) was also used to induce platelet aggregation. The submaximal concentrations of agonists, i.e. the concentrations that gave approximately 95% of the maximal aggregation were used to study the effects of inhibitors of aggregation. Results were expressed in percent changes in maximal light transmission, with 100% representing light transmission of platelet medium alone.

Data set [10] in a line: Hydrolysis in rabbit plasma. It is filed as in vitro ADME. The method, then:
as §1, with “In order to mimic conditions during the first passage of the drugs after intestinal absorption selected compounds were incubated in phosphate buffer at 37° C. in the presence of microsomes from human liver (HLM) and intestinal epithelium (HIM).” left out, “The identity of participating enzymes was confirmed by using purified enzyme in the case of plasma (BuChE) and by repeating the hydrolysis experiments in the presence of esterase specific inhibitors—isoOMPA for BuChE and BNPP for carboxylesterase.” left out, “1964). […]” for “1964).”

The molecule `CC(=O)Oc1ccccc1C(=O)O[C@H]1CO[C@H]2[C@@H]1OC[C@H]2OC(=O)c1ccccc1O` [Compound 2, Isosorbide-2-aspirinate-5-salicylate] gave a half-life at 2.4 µM in the data set “in vitro” of 2 min. Further, the “conversion to aspirin in the presence of purified butyrylcholinesterase” value in [1] was “almost complete conversion to aspirin”. Besides, in data set [2], the “potency relative to aspirin, inhibition of arachidonic acid-induced human platelet aggregation” value is “significantly more potent than aspirin”. Further, the “Drug disappearance” value in data set [3] (HLM/isoOMPA (10 uM), conc drug […]) amounted to 10 min; in data set [3] (human, 0.1 mM, pH 7.4), 10 min; in [4] it was 10 min; in data set [7] it was 5 min; in [8], 5 min; in [10] (50% Rabbit Plasma, conc drug 0.1 mM) it was 20 min. Moreover, in [5], the “stability towards esterases found in CACO-2 cells” value is given as “stable”. Also, the “MDA synthesis by washed platelets” value in the data set on MDA synthesis is given as “effective”. Moreover, the Drug disappearance time entry is listed as “present after 1 hr” in [6] (guinea pig, 1 hr); 20 min in [6] (hamster); 5 min in data set [6] (monkey); 10 min in data set [10] (rabbit, 0.1 mM, pH 7.4). In addition, the “Drug disappearance: drug left” value in data set [7] (60 min) came out at 9.4 μM left. Further, the “constitutive platelet glyco-protein expression” value in the data set with GPIIb/IIIa is “dampens constitutive platelet glyco-protein expression”. In [9], the “potency relative to aspirin, inhibition of collagen-induced human platelet aggregation” value is “significantly more potent than aspirin; also recorded: significantly more potent than ASA”.

Source of the values: patent publication US8486974B2 (priority 2007, dated 2013).
